Reference: article PMC6737539 (Journal of medicinal chemistry, 2019)
Like-named read-outs stand apart in the source and are kept apart here.

Tests used:
[1] = Liver microsomal metabolic stability, rat; type: in vitro ADME; conditions: 10 μM, 30 min
[2] = system: serum RBP4; conditions: mice; cited from earlier work
[3] = Liver microsomal metabolic stability, mouse; type: in vitro ADME; conditions: 10 μM, 30 min
[4] = Liver microsomal metabolic stability, human; type: in vitro ADME; conditions: 10 μM, 30 min
[5] = molecular target: RBP4 (Homo sapiens, UniProt P02753); assay: RBP4 scintillation proximity assay; type: binding; conditions: for binding to RBP4 (competition binding): purified human RBP4, 10 nM 3H-retinol radioligand
[6] = lipophilic ligand efficiency: RBP4 SPA pIC50 − cLog P

SMILES | LLE [5, 6] | binding to RBP4 (competition binding) [5] | also measured
O=C(O)c1ccccc1NC(=O)N1CCC(c2ccccc2C(F)(F)F)CC1 [Compound 3, reference compound] |  |  | Microsomal Stability (% remaining) RLM [1]: 85 % remaining
Cc1cc(C(=O)O)nc(N2C[C@H]3CC(c4ccccc4C(F)(F)F)C[C@H]3C2)n1 (stereo partly shown) [Compound 5] |  |  | serum RBP4 lowering [2]: 90%
Cn1nc(C(=O)N2CCC(c3ccccc3C(F)(F)F)CC2)c2ccccc21 [Compound 12, (1-Methyl-1H-indazol-3-yl)(4-(2-(trifluoromethyl)phenyl)-piperidin-1-yl)methanone] | 4.56 |  | Microsomal Stability (% remaining) RLM [1]: 0.0 % remaining; Microsomal Stability (% remaining) MLM [3]: 0.2 % remaining; Microsomal Stability (% remaining) HLM [4]: 0.7 % remaining
COc1ccc2[nH]nc(C(=O)N3CCC(c4ccccc4C(F)(F)F)CC3)c2c1 [Compound 17, (5-Methoxy-1H-indazol-3-yl)(4-(2-(trifluoromethyl)phenyl)-piperidin-1-yl)methanone] | 3.01 |  | 
CC(C)n1nc(C(=O)N2CCC(c3ccccc3C(F)(F)F)CC2)c2ccc(F)cc21 [Compound 20, (6-Fluoro-1-isopropyl-1H-indazol-3-yl)(4-(2-(trifluoromethyl)-phenyl)piperidin-1-yl)methanone] |  |  | LLE [5]: 2.03
N#Cc1ccc2nnc(C(=O)N3CCC(c4c(F)cccc4C(F)(F)F)CC3)n2c1 [Compound 64, 3-(4-(2-Fluoro-6-(trifluoromethyl)phenyl)piperidine-1-carbonyl)-[1,2,4]triazolo[4,3-a]pyridine-6-carbonitrile] | 5.89 |  | 
CC/C=C\C/C=C\C/C=C\C/C=C\C/C=C\C/C=C\CCC(=O)O [docosahexaenoic acid, reference compound] |  | weak RBP4 ligands | 
CCCCC/C=C\C/C=C\CCCCCCCC(=O)O [linoleic acid, reference compound] |  | weak RBP4 ligands | 
CCCCCCCC/C=C\CCCCCCCC(=O)O [oleic acid, reference compound] |  | weak RBP4 ligands | 
CCCCCCCCCCCCCCCC(=O)O [palmitic acid, reference compound] |  | weak RBP4 ligands | 
